Experimental data as given in the NIST ThermoML archive (doi:10.1016/j.fluid.2017.04.001).
± gives the expanded uncertainty stated by the source.

Test: wn = mass fraction of the nth substance listed
Conditions: 308.2 K, 101 kPa, Liquid, Cone and plate viscometry

Compound	viscosity (w1 = 0.05) [mPa·s]	viscosity (w1 = 0.1) [mPa·s]	viscosity (w1 = 0.2) [mPa·s]	viscosity (w1 = 0.3) [mPa·s]
C[N+](C)(C)CCO.NCC(=O)[O-] [2-hydroxy-N,N,N-trimethylethanaminium glycinate] + O	0.85 ± 0.02	0.96 ± 0.03	1.24 ± 0.04	1.7 ± 0.07
C[N+](C)(C)CCO.O=C([O-])[C@@H]1CCCN1 [2-hydroxy-N,N,N-trimethylethanaminium L-prolinate] + O	0.89 ± 0.02	1.06 ± 0.03	1.49 ± 0.06	2.2 ± 0.11
C[C@H](N)C(=O)[O-].C[N+](C)(C)CCO [2-hydroxy-N,N,N-trimethylethanaminium L-alaninate] + O	0.87 ± 0.02	0.98 ± 0.03	1.32 ± 0.05	1.92 ± 0.09
